For this assay, the target named is Histamine H3 receptor (Homo sapiens, UniProt Q9Y5N1). Nature of the assay: Modulation of human histamine H3 receptor expressed in HEK293 cells assessed as change in forskolin-stimulated cAMP level after 1 hr by HTRF assay. Format: functional, cell-based.
Sequence of Histamine H3 receptor (Q9Y5N1 whole entry): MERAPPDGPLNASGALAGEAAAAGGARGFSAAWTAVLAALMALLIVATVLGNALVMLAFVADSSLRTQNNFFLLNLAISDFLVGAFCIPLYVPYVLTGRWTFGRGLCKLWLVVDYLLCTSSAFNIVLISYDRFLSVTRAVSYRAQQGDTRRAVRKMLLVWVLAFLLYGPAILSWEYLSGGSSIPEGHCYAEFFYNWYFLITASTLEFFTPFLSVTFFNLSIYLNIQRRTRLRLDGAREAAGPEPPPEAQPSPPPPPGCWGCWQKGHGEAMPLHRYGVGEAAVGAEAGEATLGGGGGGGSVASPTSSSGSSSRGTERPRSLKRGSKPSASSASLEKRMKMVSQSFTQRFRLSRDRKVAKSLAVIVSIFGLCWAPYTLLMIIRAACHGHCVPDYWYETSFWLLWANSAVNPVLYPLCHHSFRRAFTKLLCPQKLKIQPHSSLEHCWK
As for `COC(=O)C(C)(C)C(=O)Nc1ccc(-c2ccc(CCN3CCC[C@H]3C)cc2)cc1`, the IC50 was 1.2 nM.

Consider `COC(=O)CC(=O)NCCc1ccc(-c2ccc(CCN3CCC[C@H]3C)cc2)cc1`, for which the IC50 is 0.99 nM.

In the case of `COC(=O)CCCC(=O)NC1(c2ccc(-c3ccc(CCN4CCC[C@H]4C)cc3)cc2)CCCC1`, the IC50 turned out to be 15 nM.

Consider `COC(=O)CC(=O)NC1(c2ccc(-c3ccc(CCN4CCC[C@H]4C)cc3)cc2)CCCC1`, for which the IC50 amounted to 1.9 nM.

Turning to `C[C@@H]1CCCN1CCc1ccc(-c2ccc(C3(NC(=O)CCCC(=O)O)CCCC3)cc2)cc1`, the half-inhibitory concentration (IC50) was determined as 2.1 nM.

Consider `C[C@@H]1CCCN1CCc1ccc(-c2ccc(NC(=O)CCC(=O)O)cc2)cc1`, for which the 50% inhibitory concentration (IC50) was 2.5 nM.

For the molecule `C[C@@H]1CCCN1CCc1ccc(-c2ccc(CCNC(=O)C(C)(C)C(=O)OC(C)(C)C)cc2)cc1`, the IC50 was 0.95 nM.

As for `C[C@@H](C(=O)NCCc1ccc(-c2ccc(CCN3CCC[C@H]3C)cc2)cc1)C(=O)OC(C)(C)C`, the 50% inhibitory concentration (IC50) was 2.1 nM.

A word on the IC50: it is the concentration needed to halve the response being measured.

These data come from ChEMBL document CHEMBL3425474, “Biphenyl-ethyl-pyrrolidine derivatives as histamine h3 receptor modulators for the treatment of cognitive disorders” (ACS Med Chem Lett, 2015).
